Results on 14 compounds are retold here after patent publication US6444812B1, “Intermediate compounds in the preparation of farnnesyl transferase inhibiting 1,8-annelated quinolinone derivatives substituted with N-or C linked imidazoles” (Janssen Pharmaceutica N.V., priority 1997, dated 2002).

The structures appear in SMILES notation.

Series [1] addresses T1, Human farnesyl protein transferase (Homo sapiens, UniProt P49354+P49356).
T1 construct: grown as monolayer cell cultures were used as a source of human enzyme; endogenous in cells; host or cells: KHOS (Kirsten virus transformed human osteosarcoma) cells from ATCC, grown as solid tumors in nude mice or as monolayer cultures; The enzyme was partially purified by a 30-50% ammonium sulfate cut and Q Fast Flow Sepharose
Briefly: In Vitro Assay for Inhibition of Farnesyl Protein Transferase (scintillation proximity assay). The format is biochemical. To be noted: concentration of test compound producing 50% inhibition of enzyme activity; 60 min at 37° C. The method, then: “In Vitro Assay for Inhibition of Farnesyl Protein Transferase”
Human farnesyl protein transferase was prepared essentially as described (Y. Reiss et al., Methods: A Companion to Methods in Enzymology, vol. 1, 241-245, 1990). Kirsten virus transformed human osteosarcoma (KHOS) cells (American Type Culture Collection, Rockville, Md., USA) grown as solid tumors in nude mice or grown as monolayer cell cultures were used as a source of human enzyme. Briefly, cells or tumors were homogenized in buffer containing 50 mM Tris, 1 mM EDTA, 1 mM EGTA and 0.2 mM phenylmethylsulfonylfluoride (pH 7.5). The homogenates were centrifuged 28,000×g for 60 min and the supernatants collected. […] Fractions containing 4 to 5 ml volumes of column eluate were collected and analyzed for farnesyl protein transferase activity. […]
The activity of farnesyl protein transferase was measured using the Farnesyl Transferase [^3H] […] The amount of [^3H]-farnesyl-(Cys)-biotin lamin B peptide synthesized in the presence or absence of test compounds was quantified as cpm by counting on a Wallac Model 1480 Microbeta Liquid Scintillation Counter. […] The protein farnesyl transferase activity observed in the presence of test compound was normalized to farnesyl transferase activity in the presence of 10% DMSO and expressed as percent inhibition. […]
On the technique in general: In a scintillation proximity assay essentially only radioactivity close to the scintillant gives light.

Series [2] deals with NIH 3T3 cells transformed by the T24 activated human H-ras gene. Put plainly: Ras-Transformed Cell Phenotype Reversion Assay. Type of series: cell-based, mouse. Conditions: cell counts after 72 hours proliferation. The text has this: “Ras-Transformed Cell Phenotype Reversion Assay”
Insertion of activated oncogenes such as the mutant ras gene into mouse NIH 3T3 cells converts the cells to a transformed phenotype. The cells become tumorigenic, display anchorage independent growth in semi-solid medium and lose contact inhibition. Loss of contact inhibition produces cell cultures which no longer form uniform monolayers. Rather, the cells pile up into multicellular nodules and grow to very high saturation densities in plastic tissue culture dishes. Agents such as protein farnesyl transferase inhibitors which revert the ras transformed phenotype restore the uniform monolayer growth pattern to cells in culture. This reversion is easily monitored by counting the number of cells in tissue culture plates. Transformed cells will achieve higher cell numbers than cells which have reverted to an untransformed phenotype. Compounds which revert the transformed phenotype should produce antitumor effects in tumors bearing ras gene mutations.
Compounds are screened in tissue culture in NIH 3T3 cells transformed by the T24 activated human H-ras gene. Cells are seeded at an initial density of 200,000 cells per well (9.6 cm^2 surface area) in six-well cluster tissue culture plates. Test compounds are immediately added to 3.0 ml cell growth medium in a 3.0 μl volume of DMSO, with a final concentration of DMSO in the cell growth medium of 0.1%. The test compounds are run at concentrations of 5, 10, 50, 100, and 500 nM along with a DMSO treated vehicle control. […] Then the cells are detached in 1.0 ml trypsin-EDTA cell dissociation medium and counted on a Coulter particle counter.
Cell numbers expressed as cells per well are measured using a Coulter Particle Counter.
All cell counts were corrected for the initial cell input density by subtracting 200,000.
Control cell counts=[cell counts from cells incubated with DMSO vehicle−200,000]
Test compound cell counts=[cell counts from cells incubated with test compound−200,000]. [formula]

The subject of series [3] is T24 activated human H-ras gene transformed NIH 3T3 fibroblast cells (T24 cells). Put plainly: Farnesyl Protein Transferase Inhibitor Secondary Tumor Model. The format is in vivo, Nude mice. Conditions: po, 15 days of treatment. The text has this:
“Farnesyl Protein Transferase Inhibitor Secondary Tumor Model”
The enzyme farnesyl protein transferase catalyzes the covalent attachment of a farnesyl moiety derived from farnesyl pyrophosphate to the oncogene product p21^ras. This directs p21^ras to attach to plasma membranes. Once attached to plasma membranes, mutant or oncogenic forms of p21^ras will provide a signal for the transformation and uncontrolled growth of malignant tumor cells. Therefore, inhibitors of protein farnesyltransferase will prevent the membrane attachment of p21^ras and inhibit growth of ras-transformed tumors.
Nude mice are inoculated with 1×10^6 of T24 activated human H-ras gene transformed NIH 3T3 fibroblast cells (T24 cells), subcutaneously in the inguinal region. After three days to allow tumors to become established, treatment with test compounds is begun via the oral route. The test compounds are dissolved in a 20% β-cyclodextrin in 0.1 N HCl solution and administered orally as 0.1 ml of compound solution per 10 g mouse body weight. Routinely used doses are 6.25, 12.5 and 25 mg/kg. Body weights and tumor sizes are monitored during the ensuing 15 days of treatment. At the end of treatment, animals are sacrificed and tumors are weighed.
The “mean vehicle treated tumor weight” is defined as the mean tumor weight from 10 to 15 mice […].
The “mean tumor weight” is defined as the mean tumor weight from 10 to 15 mice […]. [formula]

As usually defined, the IC50 is the concentration that gives 50% inhibition. Higher therefore signals lower potency. What is called melting point is the temperature of the solid-liquid transition.

`O=c1cc(-c2cccc(Cl)c2)c2cc(C(c3ccc(Cl)cc3)n3ccnc3)cc3c2n1CCC3` (racemic) [Compound 36, (±)-7-(3-chlorophenyl)-9-[(4-chlorophenyl)-1H-imidazol-1-ylmethyl]-2,3-dihydro-1H,5H-benzo[ij]quinolizin-5-one]: in series [1], 0.021 µM corresponded to half-maximal inhibition (IC50).
`Cn1cncc1C(c1ccc(Cl)cc1)c1cc2c3c(c1)c(-c1cccc(Cl)c1)cc(=S)n3CC2` (racemic) [Compound 27, (±)-6-(3-chlorophenyl)-8-[(4-chlorophenyl)(1-methyl-1H-imidazol-5-yl)methyl]-1,2-dihydro-4H-pyrrolo[3,2,1-ij]quinoline-4-thione]: the IC50 in series [2] (NIH3T3) was 0.0371 µM.
Same read-out and setting: the figure for `Cn1cncc1C(c1ccc(Cl)cc1)c1cc2c3c(c1)c(-c1cccc(Cl)c1)cc(=O)n3CC2` (racemic) [Compound 6, (±)-6-(3-chlorophenyl)-8-[(4-chlorophenyl)(1-methyl-1H-imidazol-5-yl)methyl]-1,2-dihydro-4H-pyrrolo[3,2,1-ij]quinolin-4-one monohydrate] is 0.032 µM.
`O=c1cc(-c2cccc(Cl)c2)c2cc(C(c3ccc(Cl)cc3)n3ccnc3)cc3c2n1CC3` (centres unmarked) [Compound 38] yielded an IC50 in series [1] of 0.015 µM.
Compound `Cn1cncc1C(O)(c1ccc(Cl)cc1)c1cc2[nH]c(=O)n3c(=O)cc(-c4cccc(Cl)c4)c(c1)c23` (racemic) [Compound 34, (±)-6-(3-chlorophenyl)-8-[(4-chlorophenyl)hydroxy(1-methyl-1H-imidzol-5-yl)methyl]-4H-imidazo[4,5,1-ij]quinoline-2,4(1H)-dione] displayed an IC50 in series [2] of more than 0.5 µM.
`Cn1cncc1C(O)(c1ccc(Cl)cc1)c1cc2c3c(c1)c(-c1cccc(Cl)c1)cc(=O)n3CC2` (racemic) [Compound 5, (±)-6-(3-chlorophenyl)-8-[(4-chlorophenyl)hydroxy(1-methyl-1H-imidazol-5-yl)methyl]-1,2-dihydro-4H-pyrrolo[3,2,1-ij]quinolin-4-one] registered a melting point of 213.6 °C. The midpoint of inhibition in series [2] (NIH3T3), the IC50, lay at 0.0078 µM.
With `Cn1cncc1C(c1ccc(Cl)cc1)c1cc2c3c(c1)c(-c1cccc(Cl)c1)cc(=O)n3CC2.O` (racemic) (hydrate or solvate) [Compound 6, (±)-6-(3-chlorophenyl)-8-[(4-chlorophenyl)(1-methyl-1H-imidazol-5-yl)methyl]-1,2-dihydro-4H-pyrrolo[3,2,1-ij]quinolin-4-one monohydrate], the melting point is 147 °C.
With `Cn1cncc1C(N)(c1ccc(Cl)cc1)c1cc2c3c(c1)c(-c1cccc(Cl)c1)cc(=O)n3CC2` (racemic) [Compound 8, (±)-8-[amino(4-chlorophenyl)(1-methyl-1H-imidazol-5-yl)methyl]-6-(3-chlorophenyl)-1,2-dihydro-4H-pyrrolo[3,2,1-ij]quinolin-4-one], in series [2] (NIH3T3), the IC50 is 0.0064 µM. Moreover, the “% reduction final tumor weight” value is reported as 41% in series [3] (6.25 mg/kg bid), 44% in series [3] (12.25 mg/kg bid) and 49% in series [3] (25 mg/kg bid).
For the compound `Cn1cncc1C(O)(c1ccc(Cl)cc1)c1cc2nnn3c(=O)cc(-c4cccc(Cl)c4)c(c1)c23` (racemic) [Compound 35, (±)-6-(3-chlorophenyl)-8-[(4-chlorophenyl)hydroxy(1-methyl-1H-imidazol-5-yl)methyl]-4H-1,2,3-triazolo[4,5,1-ij]quinolin-4-one], the melting point worked out at 226 °C. This compound also yielded an IC50 in series [2] (NIH3T3) of more than 0.5 µM.
Turning to `Cn1cncc1C(N)(c1ccc(Cl)cc1)c1cc2c3c(c1)c(-c1cccc(Cl)c1)cc(=O)n3CC2` (centres unmarked) [Compound 10, (B)-8-[amino(4-chlorophenyl)(1-methyl-1H-imidazol-5-yl)methyl]-6-(3-chlorophenyl)-1,2-dihydro-4H-pyrrolo[3,2,1-ij]quinolin-4-on], the IC50 in series [2] turned out to be 0.0032 µM.
In turn, `Cc1nc2cc(C(O)(c3ccc(Cl)cc3)c3cncn3C)cc3c(-c4cccc(Cl)c4)cc(=O)n1c23` (racemic) [Compound 30, (±)-6-(3-chlorophenyl)-8-[(4-chlorophenyl)hydroxy(1-methyl-1H-imidazol-5-yl)methyl]-2-methyl-4H-imidazo[4,5,1-ij]quinolin-4-one] yielded a melting point of 170 °C. This compound came in with an IC50 in series [2] (NIH3T3) of 0.373 µM.
In series [2] (NIH3T3), `Cn1cncc1C(O)(c1ccc(Cl)cc1)c1cc2c3c(c1)c(-c1cccc(Cl)c1)cc(=O)n3CO2` (racemic) [Compound 15, (±)-6-(3-chlorophenyl)-8-[(4-chlorophenyl)hydroxy(1-methyl-1H-imidazol-5-yl)methyl]-2H,4H-oxazolo[5,4,3-ij]quinolin-4-one] gave an IC50 of 0.048 µM.
For the compound `Cn1cncc1C(O)(c1ccc(Cl)cc1)c1cc2nc(-c3ccccc3)n3c(=O)cc(-c4cccc(Cl)c4)c(c1)c23` (racemic) [Compound 31, (±)-6-(3-chlorophenyl)-8-[(4-chlorophenyl)hydroxy(1-methyl-1H-imidazol-5-yl)methyl]-2-phenyl-4H-imidazo[4,5,1-ij]quinolin-4-one], the IC50 in series [2] (NIH3T3) is more than 0.5 µM.
Take `O=C1CC(c2cccc(Cl)c2)c2cc(C(c3ccc(Cl)cc3)n3ccnc3)cc3c2N1CCC3` (racemic) [Compound 37, (±)-7-(3-chlorophenyl)-9-[(4-chlorophenyl)-1H-imidazol-1-ylmethyl]-2,3,6,7-tetrahydro-1H,5H-benzo[ij]quinolizin-5-one]: the melting point came to 93.6 °C.
